# Measured values published in PMC8523698, “Preclinical characterization of an intravenous coronavirus 3CL protease inhibitor for the potential treatment of COVID19” (Nature Communications, 2021).
# Several values for one entry are separate records, joined by “and”; a condition that tells them apart may be missing. Equal entries are not always repeated. Where two headings read alike, the source gives them in different places.
# Tests used:
# CYP2C19 = CYP2C19 (Homo sapiens, UniProt P33261); assay: Reversible CYP inhibition in human liver microsomes
# OAT3 = target: T1, OAT3 (Homo sapiens, UniProt Q8TCC7); assay: Transporter inhibition using transfected HEK293 cells
# T1 sequence (Q8TCC7 1-542): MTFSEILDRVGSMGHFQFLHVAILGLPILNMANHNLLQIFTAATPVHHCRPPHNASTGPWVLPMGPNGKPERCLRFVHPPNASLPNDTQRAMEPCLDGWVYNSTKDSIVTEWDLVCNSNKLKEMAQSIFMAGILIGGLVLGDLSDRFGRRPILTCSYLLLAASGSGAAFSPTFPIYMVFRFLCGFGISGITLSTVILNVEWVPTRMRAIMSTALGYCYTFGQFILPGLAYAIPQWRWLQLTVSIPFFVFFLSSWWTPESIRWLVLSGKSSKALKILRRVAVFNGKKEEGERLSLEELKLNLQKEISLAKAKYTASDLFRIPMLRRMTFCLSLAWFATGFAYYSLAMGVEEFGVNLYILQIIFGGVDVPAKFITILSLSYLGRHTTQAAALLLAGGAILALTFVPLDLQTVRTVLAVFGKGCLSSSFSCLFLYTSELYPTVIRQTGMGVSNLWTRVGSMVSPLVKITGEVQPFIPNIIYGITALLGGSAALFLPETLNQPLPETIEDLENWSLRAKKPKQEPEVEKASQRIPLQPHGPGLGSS
# BCRP = BCRP (Homo sapiens, UniProt Q9UNQ0); assay: Transporter inhibition using membrane vesicles; conditions: IC50, Rosuvastatin (0.2 µM)
# [1] = Plasma protein binding by equilibrium dialysis; conditions: for fraction unbound at 6 h, 5 uM / fraction unbound at 6 h: rat, plasma
# HCoV-229E = assay: Viral CPE assay in MRC-5 cells (CellTiter Glo); format: cell-based; conditions: Human coronavirus 229E
# MATE2K = target: T2, MATE2K (Homo sapiens, UniProt Q86VL8); assay: Transporter inhibition using transfected HEK293 cells; format: in vitro ADME; conditions: IC50, [14C]Metformin (20 µM)
# T2 construct: expressed in transfected cells; host or cells: HEK293
# Experimental: For the inhibition studies, HEK293 cells were washed three times with warm transport buffer (Hanks’ balanced salt solution with 20 mM 4-(2-Hydroxyethyl) piperazine-1-ethanesulfonic acid, pH 7.4) followed by incubation with test compounds containing probe substrates: 10 or 20 µM [^14C]-metformin (OCT1, OCT2, MATE1, MATE2K), 0.5 µM [^3H] para-aminohippuric acid (OAT1), 0.1 µM [^3H] estrone-3-sulfate (OAT3) or 0.5 µM rosuvastatin (OATP1B1/1B3). Uptake was terminated by washing cells at least three times with ice-cold transport buffer and then lysing with 0.2 mL of scintillation fluid or 0.225 mL of methanol containing internal standard. For radiolabeled compounds, radioactivity in each sample was quantified by measurement on MicroBeta (Perkin Elmer). For rosuvastatin, cell extracts were dried down under nitrogen and reconstituted in 50:50 (v:v) methanol:water prior to injection onto a LC-MS/MS system. The total cellular protein content was determined by using a BCA Protein Assay Kit (Pierce Biotechnology) following the manufacturer’s protocol. Uptake ratio was then derived as a ratio of accumulation in transfected cells to accumulation in wild-type cells. The half-maximal inhibitory concentration (IC50) for each transporter was calculated in GraphPad Prism.
# CYP2C19, sequence (P33261 whole entry): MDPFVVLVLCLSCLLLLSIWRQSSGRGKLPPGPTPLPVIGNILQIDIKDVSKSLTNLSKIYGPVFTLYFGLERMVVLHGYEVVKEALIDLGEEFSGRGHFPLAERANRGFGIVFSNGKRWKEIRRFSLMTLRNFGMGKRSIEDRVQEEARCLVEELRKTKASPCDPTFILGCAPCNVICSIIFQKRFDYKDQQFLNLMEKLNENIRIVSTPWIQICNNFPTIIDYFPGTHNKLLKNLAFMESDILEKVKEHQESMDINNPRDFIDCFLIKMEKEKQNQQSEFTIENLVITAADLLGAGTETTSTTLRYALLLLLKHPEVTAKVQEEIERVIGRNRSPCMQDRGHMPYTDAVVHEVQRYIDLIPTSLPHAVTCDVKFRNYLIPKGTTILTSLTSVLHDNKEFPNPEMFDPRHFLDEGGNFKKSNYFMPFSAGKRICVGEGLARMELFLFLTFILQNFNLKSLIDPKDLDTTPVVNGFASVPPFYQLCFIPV
# T2 sequence (Q86VL8 1-566 isoform Q86VL8-3): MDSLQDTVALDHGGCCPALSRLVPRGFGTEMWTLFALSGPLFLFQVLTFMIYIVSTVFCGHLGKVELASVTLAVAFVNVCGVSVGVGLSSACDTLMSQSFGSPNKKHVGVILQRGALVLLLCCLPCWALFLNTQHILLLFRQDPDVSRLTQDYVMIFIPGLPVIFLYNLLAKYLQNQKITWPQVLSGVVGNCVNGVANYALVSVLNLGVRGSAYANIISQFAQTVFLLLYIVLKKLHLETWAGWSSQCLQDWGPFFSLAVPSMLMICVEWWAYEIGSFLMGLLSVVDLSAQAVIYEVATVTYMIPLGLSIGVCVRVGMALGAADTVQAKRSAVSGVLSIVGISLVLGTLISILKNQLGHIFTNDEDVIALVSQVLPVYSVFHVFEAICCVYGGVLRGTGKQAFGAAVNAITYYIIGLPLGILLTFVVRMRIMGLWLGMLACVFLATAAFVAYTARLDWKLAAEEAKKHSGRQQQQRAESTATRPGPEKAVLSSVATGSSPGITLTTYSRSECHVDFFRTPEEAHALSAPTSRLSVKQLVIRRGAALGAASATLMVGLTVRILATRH
# BCRP, sequence (Q9UNQ0 whole entry): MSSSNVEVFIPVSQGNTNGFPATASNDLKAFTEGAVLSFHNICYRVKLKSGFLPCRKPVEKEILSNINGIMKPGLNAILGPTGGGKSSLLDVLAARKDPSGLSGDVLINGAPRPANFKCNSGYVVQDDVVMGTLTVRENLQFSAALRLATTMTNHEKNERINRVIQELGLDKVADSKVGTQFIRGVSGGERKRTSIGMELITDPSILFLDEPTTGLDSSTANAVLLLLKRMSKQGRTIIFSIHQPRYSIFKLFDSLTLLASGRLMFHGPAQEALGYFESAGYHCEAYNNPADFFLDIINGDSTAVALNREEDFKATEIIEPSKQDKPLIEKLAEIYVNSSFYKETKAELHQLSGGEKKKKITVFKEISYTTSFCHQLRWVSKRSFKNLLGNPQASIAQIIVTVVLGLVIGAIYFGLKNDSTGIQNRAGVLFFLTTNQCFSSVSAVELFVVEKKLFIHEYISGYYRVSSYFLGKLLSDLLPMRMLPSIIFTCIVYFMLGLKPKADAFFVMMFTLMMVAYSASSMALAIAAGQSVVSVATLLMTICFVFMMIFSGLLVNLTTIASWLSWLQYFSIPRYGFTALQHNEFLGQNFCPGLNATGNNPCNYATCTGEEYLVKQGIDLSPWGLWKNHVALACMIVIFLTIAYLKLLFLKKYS
compound,measurement,setting,value
COc1cccc2[nH]c(C(=O)N[C@@H](CC(C)C)C(=O)N[C@@H](C[C@@H]3CCNC3=O)C(=O)CO)cc12 [PF-00835231],Percent of Control Activity,"CYP2C19; CYP 2C19, 0.1 µM, Zero-Minute Preincubation, 0.1 µM",97.1% and 93.1%
same,Percent of Control Activity,"CYP2C19; CYP 2C19, 0.214 µM, 30-Minute Preincubation, 0.214 µM",94.5% and 97.7%
same,Percent of Control Activity,"CYP2C19; CYP 2C19, 0.214 µM, Zero-Minute Preincubation, 0.214 µM",96.9% and 95.6%
same,Percent of Control Activity,"CYP2C19; CYP 2C19, 0.979 µM, Zero-Minute Preincubation, 0.979 µM",91.0% and 93.6%
same,Percent of Control Activity,"CYP2C19; CYP 2C19, 2.09 µM, 30-Minute Preincubation, 2.09 µM",78.6% and 76.3%
same,Percent of Control Activity,"CYP2C19; CYP 2C19, 2.09 µM, Zero-Minute Preincubation, 2.09 µM",89.4% and 88.4%
same,Percent of Control Activity,"CYP2C19; CYP 2C19, 4.48 µM, 30-Minute Preincubation, 4.48 µM",87.7% and 90.1%
same,Percent of Control Activity,"CYP2C19; CYP 2C19, 4.48 µM, Zero-Minute Preincubation, 4.48 µM",88.9% and 87.5%
same,Percent of Control Activity,"CYP2C19; CYP 2C19, 20.5 µM, 30-Minute Preincubation, 20.5 µM",82.9% and 81.5%
same,Percent of Control Activity,"CYP2C19; CYP 2C19, 20.5 µM, Zero-Minute Preincubation, 20.5 µM",89.8% and 81.5%
same,Percent of Control Activity,"CYP2C19; CYP 2C19, 43.8 µM, 30-Minute Preincubation, 43.8 µM",68.7%
same,Percent of Control Activity,"CYP2C19; CYP 2C19, 43.8 µM, Zero-Minute Preincubation, 43.8 µM",83.4% and 80.9%
same,Percent of Control Activity,"CYP2C19; CYP 2C19, 93.5 µM, 30-Minute Preincubation, 93.5 µM",66.6% and 74.6%
same,Percent of Control Activity,"CYP2C19; CYP 2C19, 93.5 µM, Zero-Minute Preincubation, 93.5 µM",77.3%
same,Percent of Control Activity,"CYP2C19; CYP 2C19, 200 µM, 30-Minute Preincubation, 200 µM",62.1% and 65.9%
same,Percent of Control Activity,"CYP2C19; CYP 2C19, 200 µM, Zero-Minute Preincubation, 200 µM",65.6% and 68.4%
same,IC50,"CYP2C19; human, microsomes, pH 7.4",> 200 µM
same,activity at 0.1 µM,"CYP2C19; human, microsomes, pH 7.4, Percent of Control Activity, CYP 2C19, 0.1 µM, Zero-Minute Preincubation",95.2%
same,activity at 0.214 µM,"CYP2C19; human, microsomes, pH 7.4, Percent of Control Activity, CYP 2C19, 0.214 µM, 30-Minute Preincubation",99%
same,activity at 0.214 µM,"CYP2C19; human, microsomes, pH 7.4, Percent of Control Activity, CYP 2C19, 0.214 µM, Zero-Minute Preincubation",92.9%
same,activity at 0.979 µM,"CYP2C19; human, microsomes, pH 7.4, Percent of Control Activity, CYP 2C19, 0.979 µM, Zero-Minute Preincubation",81.3%
same,activity at 2.09 µM,"CYP2C19; human, microsomes, pH 7.4, Percent of Control Activity, CYP 2C19, 2.09 µM, 30-Minute Preincubation",79.9%
same,activity at 2.09 µM,"CYP2C19; human, microsomes, pH 7.4, Percent of Control Activity, CYP 2C19, 2.09 µM, Zero-Minute Preincubation",85.8%
same,activity at 4.48 µM,"CYP2C19; human, microsomes, pH 7.4, Percent of Control Activity, CYP 2C19, 4.48 µM, 30-Minute Preincubation",88.7%
same,activity at 4.48 µM,"CYP2C19; human, microsomes, pH 7.4, Percent of Control Activity, CYP 2C19, 4.48 µM, Zero-Minute Preincubation",83.6%
same,activity at 20.5 µM,"CYP2C19; human, microsomes, pH 7.4, Percent of Control Activity, CYP 2C19, 20.5 µM, 30-Minute Preincubation",83.9%
same,activity at 20.5 µM,"CYP2C19; human, microsomes, pH 7.4, Percent of Control Activity, CYP 2C19, 20.5 µM, Zero-Minute Preincubation",86.2%
same,activity at 43.8 µM,"CYP2C19; human, microsomes, pH 7.4, Percent of Control Activity, CYP 2C19, 43.8 µM, 30-Minute Preincubation",81.3%
same,activity at 43.8 µM,"CYP2C19; human, microsomes, pH 7.4, Percent of Control Activity, CYP 2C19, 43.8 µM, Zero-Minute Preincubation",85%
same,activity at 93.5 µM,"CYP2C19; human, microsomes, pH 7.4, Percent of Control Activity, CYP 2C19, 93.5 µM, 30-Minute Preincubation",74.5%
same,activity at 93.5 µM,"CYP2C19; human, microsomes, pH 7.4, Percent of Control Activity, CYP 2C19, 93.5 µM, Zero-Minute Preincubation",76.8%
same,activity at 200 µM,"CYP2C19; human, microsomes, pH 7.4, Percent of Control Activity, CYP 2C19, 200 µM, 30-Minute Preincubation",64.9%
same,activity at 200 µM,"CYP2C19; human, microsomes, pH 7.4, Percent of Control Activity, CYP 2C19, 200 µM, Zero-Minute Preincubation",69.2%
same,IC50,OAT3,> 300 µM
same,IC50,"OAT3; human, HEK293 cells transfected with OAT3, pH 7.4, probe [3H] estrone-3-sulfate (0.1 µM)",> 20 µM
same,IC50,BCRP,19.5 µM
same,Individual fraction unbound,"[1]; Rat Wistar han plasma, 5.0 uM, replicates Day 1-3",0.368 and 0.323 and 0.339 and 0.35 and 0.268 and 0.363 and 0.364 and 0.263 and 0.326 and 0.358 and 0.285
same,"fraction unbound at 6 h, 5 uM","[1]; Wistar Han, pH 7.4, Fraction unbound, Geomean, Rat plasma, 5.0 uM, n 12",0.327
same,"fraction unbound at 6 h, 5 uM","[1]; Wistar Han, pH 7.4, Individual fraction unbound, Rat Wistar han plasma, 5.0 uM, replicates Day 1-3",0.343
same,fraction unbound at 6 h,"[1]; Wistar Hannover, pH 7.4, Plasma fu, Vdss input",0.327
same,fraction unbound at 6 h,"[1]; Wistar Hannover, pH 7.4, Unbound fraction fu (%CV), rat plasma (PF-07304814 Sprague-Dawley, PF-00835231 Wistar Hannover)",0.327
same,"fraction unbound at 6 h, 5 uM","[1]; Wistar Hannover, pH 7.4, fraction unbound Geomean, rat plasma, 5.0 uM, n=12",0.327
same,EC50,"HCoV-229E; MRC5, MRC-5, minus efflux inhibitor, individual determinations by date",0.0806 µM
same,EC50,"HCoV-229E; MRC5, read-out: EC50 GeoMean (95% CI), efflux inhibitor CP-100356: 0",0.069 µM
same,EC50,"HCoV-229E; MRC5, read-out: EC50 GeoMean (95% CI), efflux inhibitor CP-100356: 0.5 μM",0.08 µM
same,CC50,"in vitro; African green monkey, CC50",> 100 µM
same,CC50,"in vitro; African green monkey, CC50, n=1",> 50 µM
same,CC50,"in vitro; monkey, CC50",> 50 µM
same,CC50,"in vitro; monkey, CC50, n=1",> 50 µM
same,CC50,"in vitro; monkey, CC50 GeoMean (95% CI)",> 100 µM
same,IC50,MATE2K,180 µM
same,IC50,"MATE2K; human, HEK293 cells stably transfected with MATE2K, pH 7.4, probe [14C]-metformin (20 µM)",> 20 µM
